Among the data in the supplement of paper PMC10307832 are relative viability values, retold here.

For one assay, the system named is BEN. Description: relative viability (nuclei count vs DMSO), 5 days (fraction); higher = more cells survive. As to conditions: first compound 0.8 µM. Summed up: (§1)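 Relative viability is defined as nuclei in treated wells over nuclei in vehicle wells. Duplicate plates were run and medians reported. Lung cancer cell lines in 1536-well plates were dosed by pin tool one day after seeding, with one drug or with a fixed anchor-drug dose plus five library-drug doses (not always all listed) in √10 steps, and nuclei were counted after 5 days.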
Take `CCCCCCCCCCCC1=C(O)C(=O)C=C(O)C1=O` [Embelin] + NC(=O)Nc1cc(-c2cccc(F)c2)sc1C(=O)N[C@H]1CCCNC1 [AZD7762] (partner 0.2 µM): the relative viability worked out at 0.765.

Staying with this assay, now noted: first compound 2.53 µM.
`CCCCCCCCCCCC1=C(O)C(=O)C=C(O)C1=O` [Embelin] + N=C(N)NC(=N)NCCc1ccccc1 [Phenformin] (partner 250 µM) showed a relative viability of 0.264.

Compound `CCCCCCCCCCCC1=C(O)C(=O)C=C(O)C1=O` [Embelin] + O=C(c1cc(Cc2n[nH]c(=O)c3ccccc23)ccc1F)N1CCN(C(=O)C2CC2)CC1 [Olaparib] (partner 8 µM) registered a relative viability of 1.13.

Compound `CCCCCCCCCCCC1=C(O)C(=O)C=C(O)C1=O` [Embelin] + CC(=O)Nc1cccc(-n2c(=O)n(C3CC3)c(=O)c3c(Nc4ccc(I)cc4F)n(C)c(=O)c(C)c32)c1 [Trametinib] (partner 0.02 µM) showed a relative viability of 0.966.

Consider `CCCCCCCCCCCC1=C(O)C(=O)C=C(O)C1=O` [Embelin] + Nc1ncn([C@H]2C[C@H](O)[C@@H](CO)O2)c(=O)n1 [Decitabine] (partner 2 µM), for which the relative viability is 0.812.

`CCCCCCCCCCCC1=C(O)C(=O)C=C(O)C1=O` [Embelin] + NC(=O)Nc1cc(-c2cccc(F)c2)sc1C(=O)N[C@H]1CCCNC1 [AZD7762] (partner 0.2 µM) displayed a relative viability of 0.716.

The assay is the same for the next values; noted with them: first compound 8 µM.
As to `CCCCCCCCCCCC1=C(O)C(=O)C=C(O)C1=O` [Embelin] + N=C(N)NC(=N)NCCc1ccccc1 [Phenformin] (partner 250 µM), the relative viability was 0.263.

For the compound `CCCCCCCCCCCC1=C(O)C(=O)C=C(O)C1=O` [Embelin] + O=C(c1cc(Cc2n[nH]c(=O)c3ccccc23)ccc1F)N1CCN(C(=O)C2CC2)CC1 [Olaparib] (partner 8 µM), the relative viability was 1.22.

Consider `CCCCCCCCCCCC1=C(O)C(=O)C=C(O)C1=O` [Embelin] + CC(=O)Nc1cccc(-n2c(=O)n(C3CC3)c(=O)c3c(Nc4ccc(I)cc4F)n(C)c(=O)c(C)c32)c1 [Trametinib] (partner 0.02 µM), for which the relative viability came out at 0.865.

In turn, `CCCCCCCCCCCC1=C(O)C(=O)C=C(O)C1=O` [Embelin] + Nc1ncn([C@H]2C[C@H](O)[C@@H](CO)O2)c(=O)n1 [Decitabine] (partner 2 µM) had a relative viability of 0.559.

For `CCCCCCCCCCCC1=C(O)C(=O)C=C(O)C1=O` [Embelin] + NC(=O)Nc1cc(-c2cccc(F)c2)sc1C(=O)N[C@H]1CCCNC1 [AZD7762] (partner 0.2 µM), the relative viability turned out to be 0.542.

In a further assay the test system is CAL-12T. The description is as above. As to conditions: first compound 0.08 µM. A digest of the protocol:
as §1
With `CCCCCCCCCCCC1=C(O)C(=O)C=C(O)C1=O` [Embelin] + N=C(N)NC(=N)NCCc1ccccc1 [Phenformin] (partner 250 µM), the relative viability amounted to 0.578.

For the compound `CCCCCCCCCCCC1=C(O)C(=O)C=C(O)C1=O` [Embelin] + O=C(c1cc(Cc2n[nH]c(=O)c3ccccc23)ccc1F)N1CCN(C(=O)C2CC2)CC1 [Olaparib] (partner 8 µM), the relative viability is 0.726.

As to `CCCCCCCCCCCC1=C(O)C(=O)C=C(O)C1=O` [Embelin] + CC(=O)Nc1cccc(-n2c(=O)n(C3CC3)c(=O)c3c(Nc4ccc(I)cc4F)n(C)c(=O)c(C)c32)c1 [Trametinib] (partner 0.02 µM), the relative viability came to 0.376.

`CCCCCCCCCCCC1=C(O)C(=O)C=C(O)C1=O` [Embelin] + NC(=O)Nc1cc(-c2cccc(F)c2)sc1C(=O)N[C@H]1CCCNC1 [AZD7762] (partner 0.2 µM) displayed a relative viability of 0.641.

The assay is the same for the next values; noted with them: first compound 0.8 µM.
For the compound `CCCCCCCCCCCC1=C(O)C(=O)C=C(O)C1=O` [Embelin] + N=C(N)NC(=N)NCCc1ccccc1 [Phenformin] (partner 250 µM), the relative viability came out at 0.687.

`CCCCCCCCCCCC1=C(O)C(=O)C=C(O)C1=O` [Embelin] + O=C(c1cc(Cc2n[nH]c(=O)c3ccccc23)ccc1F)N1CCN(C(=O)C2CC2)CC1 [Olaparib] (partner 8 µM) yielded a relative viability of 0.727.

Compound `CCCCCCCCCCCC1=C(O)C(=O)C=C(O)C1=O` [Embelin] + CC(=O)Nc1cccc(-n2c(=O)n(C3CC3)c(=O)c3c(Nc4ccc(I)cc4F)n(C)c(=O)c(C)c32)c1 [Trametinib] (partner 0.02 µM) showed a relative viability of 0.386.

Regarding `CCCCCCCCCCCC1=C(O)C(=O)C=C(O)C1=O` [Embelin] + NC(=O)Nc1cc(-c2cccc(F)c2)sc1C(=O)N[C@H]1CCCNC1 [AZD7762] (partner 0.2 µM), the relative viability turned out to be 0.697.

The assay is the same for the next values; noted with them: first compound 2.53 µM.
For `CCCCCCCCCCCC1=C(O)C(=O)C=C(O)C1=O` [Embelin] + N=C(N)NC(=N)NCCc1ccccc1 [Phenformin] (partner 250 µM), the relative viability is 0.554.

`CCCCCCCCCCCC1=C(O)C(=O)C=C(O)C1=O` [Embelin] + O=C(c1cc(Cc2n[nH]c(=O)c3ccccc23)ccc1F)N1CCN(C(=O)C2CC2)CC1 [Olaparib] (partner 8 µM): the relative viability was 0.706.

Compound `CCCCCCCCCCCC1=C(O)C(=O)C=C(O)C1=O` [Embelin] + CC(=O)Nc1cccc(-n2c(=O)n(C3CC3)c(=O)c3c(Nc4ccc(I)cc4F)n(C)c(=O)c(C)c32)c1 [Trametinib] (partner 0.02 µM) gave a relative viability of 0.283.

As to `CCCCCCCCCCCC1=C(O)C(=O)C=C(O)C1=O` [Embelin] + NC(=O)Nc1cc(-c2cccc(F)c2)sc1C(=O)N[C@H]1CCCNC1 [AZD7762] (partner 0.2 µM), the relative viability turned out to be 0.61.

The same assay, now with this note: first compound 8 µM.
`CCCCCCCCCCCC1=C(O)C(=O)C=C(O)C1=O` [Embelin] + N=C(N)NC(=N)NCCc1ccccc1 [Phenformin] (partner 250 µM): the relative viability was 0.543.

The compound `CCCCCCCCCCCC1=C(O)C(=O)C=C(O)C1=O` [Embelin] + O=C(c1cc(Cc2n[nH]c(=O)c3ccccc23)ccc1F)N1CCN(C(=O)C2CC2)CC1 [Olaparib] (partner 8 µM) displayed a relative viability of 0.677.

For the compound `CCCCCCCCCCCC1=C(O)C(=O)C=C(O)C1=O` [Embelin] + CC(=O)Nc1cccc(-n2c(=O)n(C3CC3)c(=O)c3c(Nc4ccc(I)cc4F)n(C)c(=O)c(C)c32)c1 [Trametinib] (partner 0.02 µM), the relative viability came to 0.295.

In turn, `CCCCCCCCCCCC1=C(O)C(=O)C=C(O)C1=O` [Embelin] + NC(=O)Nc1cc(-c2cccc(F)c2)sc1C(=O)N[C@H]1CCCNC1 [AZD7762] (partner 0.2 µM) had a relative viability of 0.676.

A further assay relates to COR-L 105. The assay is described as above. Conditions: first compound 0.08 µM. Summed up:
as §1
The compound `CCCCCCCCCCCC1=C(O)C(=O)C=C(O)C1=O` [Embelin] + N=C(N)NC(=N)NCCc1ccccc1 [Phenformin] (partner 250 µM) came in with a relative viability of 0.582.

As to `CCCCCCCCCCCC1=C(O)C(=O)C=C(O)C1=O` [Embelin] + O=C(c1cc(Cc2n[nH]c(=O)c3ccccc23)ccc1F)N1CCN(C(=O)C2CC2)CC1 [Olaparib] (partner 8 µM), the relative viability is 0.737.

Compound `CCCCCCCCCCCC1=C(O)C(=O)C=C(O)C1=O` [Embelin] + CC(=O)Nc1cccc(-n2c(=O)n(C3CC3)c(=O)c3c(Nc4ccc(I)cc4F)n(C)c(=O)c(C)c32)c1 [Trametinib] (partner 0.02 µM) had a relative viability of 0.462.
